Reference: patent US12503426B2, “Synthetic derivatives of oleoyl-lysophosphatidylinositol (oleoyl-LPI) and uses thereof” (LIPOVEXA SRL, priority 2017, dated 2025)

Tests used:
Glutag cells = assay: GLP-1 secretion by Glutag cells; format: cell-based, murine; settings: Glutag cells, inhibitor 1 hour before oleoyl-LPI (PD98059 50 μM; H89 10 μM)
Procedure: Glutag cells were maintained in low glucose DMEM (Sigma) (1 g/L) containing 2.0 mM L-glutamine, 1.0 mM sodium pyruvate and supplemented with 10% FBS, 100 IU/ml penicillin, 100 μg/ml streptomycin at a 37° C. and 5% CO2.
(§1) Approximately 80,000 Glutag cells were plated in poly-L-lysine-coated 24-well culture plates and grown to about 80% confluence. NCI-H716 cells were seeded on growth factor reduced Matrigel™ (Becton Dickinson, Bedford, MA) in DMEM medium, supplemented with 10% FBS the day before the experiment. For NCI-H716 cells, approximately 25,000 cells were needed for this secretion experiment in order to have good stimulation with lower basal GLP-1 secretion. In brief, Glutag and NCI-H716 cells were washed twice and then incubated for 2 h with FBS-free DMEM containing 1% (M:C) alone (negative control), 10 μM forskolin as positive control (Sigma-Aldrich), or with different concentrations of Oleoyl-LPI. M:C was used as a solvent to prepare stock solutions of fatty acid derivatives and inhibitors. For secretion experiments, medium and cells were collected separately.
(§2) In separate studies, GLUTag or NCI-H716 cells were pre-treated for 1 hour with medium alone (1% DMSO, negative control), PD98059 (50 μM; Sigma Chemical Co.), H89 (10 μM; Santa Cruz) followed by treatment with oleoyl-LPI (20 μM), OEA (10 μM), AR231453(1 μM), PMA (10 μM) or forskolin (10 μM, positive control) in the presence of inhibitors, as appropriate, for about 2 h. Medium GLP-1 secretion was calculated as total GLP-1 content of medium normalised for the basal secretion of the control.
(§3) In order to investigate the role of different LPI species in enteroendocrine cells, murine (Glutag) and human (NCI-H716) L-cells were stimulated with the following different species of LPI: Arachidonyl-LPI, Stearoyl-LPI, Heptadecenoyl-LPI and oleoyl-LPI, as well as with OEA and LPC. Experiments were performed in duplicate, n=4 and the level of total GLP-1 was measured by ELISA.

NCI-H716 cells = assay: GLP-1 secretion by NCI-H716 cells (Examples 2-8); format: cell-based, human; settings: NCI-H716 cells, inhibitor 1 hour before oleoyl-LPI (PD98059 50 μM; H89 10 μM)
Procedure: NCI-H716 cells were maintained in 75 cm^2 tissue culture flasks (Corning) in RPMI 1640 media containing 2.0 mM L-glutamine, 1.5 g/L sodium bicarbonate, 10 mM HEPES buffer, 1.0 mM sodium pyruvate, and 4.5 g/L glucose and supplemented with 10% FBS at a 37° C. and 5% CO2. When plating for experiment, cell adhesion and endocrine differentiation were initiated by growing cells in dishes coated with growth factor reduced Matrigel diluted at the ratio of 1:2 (Becton Dickinson, Bedford, MA) in high-glucose DMEM, 10% FBS, 2 mM glutamine, 100 IU/ml penicillin, and 100 μg/ml streptomycin as described previously by De Bruine, a P., Dinjens, W. N., van der Linden, E. P., Pijls, M. M., Moerkerk, P. T., & Bosman, F. T. (1993) The American Journal of Pathology, Vol 142(3), pp 773-782, the disclosure of which is incorporated herein in its entirety by reference.
as §1, §2, §3

ERK = ERK phosphorylation by Western blot, NCI-H716 cells; format: cell-based, human; settings: pre-treatment 1 hour, 50 μM, then oleoyl-LPI
Procedure: When cell cultures reached 80-90%, media were removed and cells were washed twice with 1×PBS. The cells were lysed in 150 μl (for one well of a 6 well plate) of Triton X-100 lysis buffer, containing phosphatase inhibitor cocktail (1:1000) (Sigma Aldrich, UK) and protease inhibitor (1:1000, Sigma Aldrich, UK). Cells were detached with scrapers and lysate were collected and centrifuged at 10,000 rpm, 4° C. for 5 minutes. The supernatant was then transferred to a 1.5 ml microcentrifuge tube and used for protein quantification. Cell lysates were stored at −20° C. for longer storage. All lysates were prepared on ice.
Non-specific antibody binding was prevented by incubating the nitrocellulose membrane in 5% milk in PBS-0.05% Tween-20 (v/v) for 30 minutes on a rotating plate. The membrane was then washed in PBS-0.05% Tween-20 (v/v) and then incubated with the primary antibody diluted in PBS-0.05% Tween-20 (v/v) on a rotating plate overnight at 4° C. After 24 hours, the membrane was washed 5× for 5 minutes with PBS-0.05% Tween-20 (v/v), and then incubated on a rotating plate with the appropriate secondary antibody for 1 hour at room temperature. […]

GPR55 mRNA = assay: siRNA knockdown of GPR55 mRNA by real-time RT-PCR; format: cell-based, murine; settings: Glutag cells, 48 hours post transfection
Procedure: Transfection was performed according to the “Lipofectamine transfection protocol” (Invitrogen, Life Technologies) and optimised for a 6-well plate format. Briefly, cells were plated in complete growth medium at a density of 3.0×10^5/well in a 6-well plate and incubated at 37° C./5% CO2. Twenty-four hours later, when cells were ˜60% confluent, transfection was performed in RNAse-free conditions. 300 nM of total siRNA pool and 4.0 μl of Lipofectamine transfection reagent were diluted in separate tubes in Optimem and incubated for 5 min at room temperature (RT). The contents of the tubes were carefully mixed and incubated again for 20 min at RT. Cells were washed twice with sterile 1×PBS and incubated in 300 μL of Optimem. After 20 min, transfection complexes were added to the cells drop wise. Cells were then incubated for 4 hours before adding Optimem containing 30% serum without antibiotic. Cells were further incubated at 37° C./5% CO2 for 48 h before secretion experiment. […]
Transfection efficiency was quantified by real-time RT-PCR. […]
RT-qPCR was performed according to manufacturer's instructions (Cat. No. K0222, Fermentas). […] The relative changes in gene expression quantification were calculated using the relative ddCT analysis mode of the ABI 7500 Real-Time PCR system software.

Compound | oleoyl-LPI induced GLP-1 secretion with inhibitor pre-treatment (Glutag cells) | oleoyl-LPI induced GLP-1 secretion with inhibitor pre-treatment (NCI-H716 cells) | ERK phosphorylation (ERK) | knockdown of GPR55 mRNA (GPR55 mRNA)
COc1cccc(-c2cc(=O)c3ccccc3o2)c1N [PD98059] | significantly reduced oleoyl-LPI induced GLP-1 secretion | significantly reduced oleoyl-LPI induced GLP-1 secretion | substantially reduced ERK phosphorylation | –
GPR55 siRNA: murine siRNA against GPR55, ACAGGGAAGUGGAGAGAUA (SEQ ID NO: 3) (listed as RNA, chemistry not given here; listed as Mus musculus) | – | – | – | 80%
